Assay [1] addresses T1, AtSOT18 (Arabidopsis thaliana, UniProt Q9C9C9).
T1 construct: gene SOT18; residues 26–347 in the model
T1 sequence (Q9C9C9 26-347): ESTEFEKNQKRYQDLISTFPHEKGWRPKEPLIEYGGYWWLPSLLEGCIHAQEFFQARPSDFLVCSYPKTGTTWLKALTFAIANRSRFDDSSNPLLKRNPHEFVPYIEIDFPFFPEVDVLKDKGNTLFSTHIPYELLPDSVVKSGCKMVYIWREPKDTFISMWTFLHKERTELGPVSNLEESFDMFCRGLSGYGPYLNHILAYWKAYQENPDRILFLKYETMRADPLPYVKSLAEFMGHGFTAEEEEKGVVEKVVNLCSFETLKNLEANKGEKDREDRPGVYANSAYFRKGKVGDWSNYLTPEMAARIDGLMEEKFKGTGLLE
Kind of assay: X-ray crystal structure of ternary complex ([…] Å). It counts as binding.

Assay [2] addresses T2, AtSOT18 (Arabidopsis thaliana, UniProt Q9C9C9).
T2 construct: gene SOT18
T2 sequence (Q9C9C9 1-350): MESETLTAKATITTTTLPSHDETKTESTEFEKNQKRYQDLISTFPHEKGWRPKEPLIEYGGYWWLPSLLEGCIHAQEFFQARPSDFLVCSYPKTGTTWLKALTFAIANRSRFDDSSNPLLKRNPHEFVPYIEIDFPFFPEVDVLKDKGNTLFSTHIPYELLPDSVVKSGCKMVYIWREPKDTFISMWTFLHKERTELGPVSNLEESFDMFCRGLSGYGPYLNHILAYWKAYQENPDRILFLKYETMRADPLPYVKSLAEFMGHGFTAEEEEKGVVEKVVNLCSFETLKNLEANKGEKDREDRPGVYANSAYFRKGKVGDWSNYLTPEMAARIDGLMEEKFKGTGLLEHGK
Kind of assay: sulphotransferase activity of purified enzyme, HPLC at […] nm. In kind it is biochemical.

Assay [3] concerns the target T2, AtSOT18. Described as above. It counts as biochemical. The source holds these as a separate data set.
The target of assay [4] is T2, AtSOT18. The assay is described as above. It counts as biochemical. The source holds these as a separate data set.
The target of assay [5] is T1, AtSOT18. Kind of assay: X-ray crystal structure ([…] Å), plus competitive inhibition kinetics against PAPS. In kind it is biochemical.
In assay [6] the target is T2, AtSOT18. Kind of assay: two-dimensional enzyme kinetic titration (HPLC), non-linear fit. It counts as biochemical.
In assay [7] the target is T2, AtSOT18. Kind of assay: sulphotransferase activity of purified enzyme, HPLC at […] nm. In kind it is biochemical. This is another data set of the same source.

Take `C=CCC(=NOS(=O)(=O)O)S[C@@H]1O[C@H](CO)[C@@H](O)[C@H](O)[C@H]1O` (stereo in doubt) [sinigrin]: the “X-ray crystal structure of ternary complex (1.92 Å)” value at AtSOT18 [1] is reported as “together with the product Gl sinigrin (PDB ID: 5MEX) were solved”.
Turning to `CSCCC/C(=N/O)S[C@@H]1O[C@H](CO)[C@@H](O)[C@H](O)[C@H]1O` [3MTP, ds-3MTP], the “3 MTP” value at AtSOT18 [2] was determined as 1624 ± 122 pkatal mg^−1.
For `CSCCCCCCCC/C(=N/O)S[C@@H]1O[C@H](CO)[C@@H](O)[C@H](O)[C@H]1O` [8MTO, ds-8MTO], at AtSOT18 [3], the 8MTO is 1618 ± 272 pkatal mg^−1.
Compound `OC[C@H]1O[C@@H](S/C(Cc2c[nH]c3ccccc23)=N\O)[C@H](O)[C@@H](O)[C@@H]1O` [I3M, ds-I3M] yielded an I3M on AtSOT18 [4] of 501 ± 46 pkatal mg^−1.
For the compound `Nc1ncnc2c1ncn2[C@@H]1O[C@H](COP(=O)(O)O)[C@@H](OP(=O)(O)O)[C@H]1O` [PAP, 3′-phosphoadenosine 5′-phosphate], the Ki – broadly, a dissociation constant, usually derived from enzyme kinetics or from competition with a known ligand – on AtSOT18 [5] is 3 ± 1.7 µM.
For `Nc1ncnc2c1ncn2[C@@H]1O[C@H](COP(=O)(O)OS(=O)(=O)O)[C@@H](OP(=O)(O)O)[C@H]1O` [PAPS, 3′-phosphoadenosine 5′-phosphosulphate], on AtSOT18 [6], the dissociation constant (Kd) (as a rule, the free concentration of one partner at which half of the binding sites on the other are occupied at equilibrium, for simple one-to-one binding) is 4.2 ± 2.6 µM.
On AtSOT18 [7], `C=CC/C(=N/O)S[C@@H]1O[C@H](CO)[C@@H](O)[C@H](O)[C@H]1O` [Sinigrin (ds form), ds-Gl sinigrin] registered a Sinigrin of 879 ± 410 pkatal mg^−1.
